According to article PMC12081905, “Ortho-functionalization of a ^211At-labeled aryl compound provides stabilization of the C-At bond against oxidative dehalogenation” (Scientific Reports, 2025):

Experiments:
[1] = Stability assay in oxidizing/acidic medium (chemical oxidation assay, KMnO4); assay type: physicochemical; settings: radio-HPLC
Procedure: Stability of ^211At-labeled compounds in oxidizing media. […] Adapted from Teze et al.[10], it consists in an incubation of the ^211At-labeled product in 50 mM acetate buffer (pH = 4.7) containing a 1 mM potassium permanganate solution (Fig. 5).
(§1) ^211At was produced at the Arronax cyclotron facility using the ^209Bi(α,2n) ^211At reaction and recovered from the irradiated target in chloroform using a dry distillation protocol adapted from the procedure previously reported by Lindegren et al.[26] Before use, the ^211At solution was reduced to dryness under a gentle stream of nitrogen. […] To quantify free astatine that remains trapped in the HPLC system during the elution, 50 µL of an aqueous sodium sulfite solution (10 mg mL^−1) were injected after each analysis to release free astatine from the HPLC system with the flow rate set at 1.20 mL/min with the following gradient: t = 0: 90% A, 10% B; t = 2–6 min: 100% B with A = H2O with 0.05% TFA and B = CH3CN with 0.05% TFA. The non-radioactive iodinated compounds were analyzed using this HPLC system and their retention times were used as references for identification of their astatinated analogues. […]
Each peak is then integrated, providing each peak area (noted A(A), A(B) etc…) to quantify the species present. […]

[2] = test system: human liver microsomes (CYP450); assay: Stability assay in human liver microsomal medium with NADPH regeneration system; assay type: in vitro ADME; settings: 37 °C, radio-HPLC
Text: (§2) Since oxidation by CYP450 enzymes is a plausible cause of oxidative deastatination within targeted cells or in the liver, we also assessed the stability of our compounds against liver microsomes. Liver microsomes contain CYP450, a family of oxidase enzymes that were used in our assay, adapted from Schmitt et al.[14] and using a nicotinamide adenine dinucleotide phosphate (NADPH) redox regeneration system to regenerate the redox properties of CYP450. For comparison, we performed the stability assay in rat and human liver microsomes (Fig. 7).
as §1, with “al.[26]” for “al.[26] Before use, the ^211At solution was reduced to dryness under a gentle stream of nitrogen.”

[3] = test system: rat liver microsomes (CYP450); assay: Stability assay in rat liver microsomal medium with NADPH regeneration system; assay type: in vitro ADME; settings: 37 °C, radio-HPLC
Text: as §2
as §1, with “al.[26]” for “al.[26] Before use, the ^211At solution was reduced to dryness under a gentle stream of nitrogen.”

[4] = design: method as in PMID 28566709; settings: DFT, resulting oxidized compounds; cited from earlier work

OCc1ccccc1[211At] [compound 2, (2-[^211At]astatophenyl)methanol]
free astatine (release of astatine) after 20 h incubation in oxidizing medium ([1]; 50 mM acetate buffer pH 4.7, 1 mM KMnO4, room temperature, 20 h, n = 3): 12%

CCNC(=O)c1cccc([211At])c1 [[^211At]AEB, 3-[^211At]astato-N-ethylbenzamide]
starting compound / metabolites after 20 h incubation in human microsomes [2]: practically no presence of the starting compound
starting compound / metabolites after 20 h incubation in rat microsomes [3]: practically no presence of the starting compound
fate of the starting 211At-compound in oxidizing medium ([1]; 50 mM acetate buffer pH 4.7, 1 mM KMnO4, up to 20 h): almost complete degradation

CCOC(=O)c1cccc([211At])c1 [compound 1, ethyl 3-[^211At]astatobenzoate]
bond dissociation energy of the carbon-halogen bond [4]: 28.2 kcal mol^−1
